According to patent US20260224547A1, “COMPOSITIONS COMPRISING ANATABINE AND USES THEREOF” (Philip Morris Products S.A., priority 2021, published 2026):

How the values were obtained:
[1] = test system: NRF2; test: NRF2 luciferase assay (NRF2/ARE reporter cell line); assay type: cell-based, human
Description: A HEK-293 NRF2/ARE luciferase reporter cell line was acquired from Signosis (USA). According to Signosis, this NRF2 luciferase reporter stable cell line had been stably transfected with pTA-ARE-luciferase reporter vector, which contains 4 repeats of antioxidant response binding sites, a minimal promoter upstream of the firefly luciferase coding region, along with a hygromycin expression vector. Following selection, the hygromycin resistant clones were subsequently screened for TBHQ-induced luciferase activity. The clone with the highest fold induction was selected and expanded to produce this stable cell line.
4, 8 or 24 hours after stimulation of the NRF2 reporter cells luminescence was measured using a FLUOstar Omega plate reader.

[2] = test system: HEK-293, SH-SY5Y, primary human keratinocytes, THP-1 differentiated with PMA; test: Cell viability, CellTiterGlo (ATP content), used to select concentrations; assay type: cell-based; settings: 24 hours of exposure; no more than 400 μM anatabine free base
[3] = test system: PMA-differentiated THP-1 cell lysates; test: DIA mass spectrometry proteomics of cell lysates; assay type: cell-based, human; settings: 100, 200, 300, 400 μM for 24 hours; adjusted p-value<0.05
Description: To confirm the increased expression of target genes of NRF2 transcription factor at the protein level, proteins were profiled by untargeted mass spectrometry in PMA-differentiated THP-1 cell lysates after anatabine treatment (100, 200, 300, 400 μM) for 24 hours.
Samples were processed using PREOMICS IST KIT (PreOmics GmbH, Planegg/Martinsried, Germany) as described in the manufacturer's protocol. Briefly, 100 μl of PREOMICS LYSE BUFFER were added to the cells, samples were incubated at 90° C. for 10 min and sonified for 30 sec with a sonifier (Brandson, Danbury, Connecticut, USA) at 10% amplitude. Protein amount was determined using the PIERCE 660 NM PROTEIN ASSAY (Pierce Biotechnology, Rockford, USA) following the manufacturer's protocol. Samples were normalized to 0.5 μg/μl and 40 μg was further processed with PREOMICS IST KIT with a 3 h trypsin digestion. Peptides were purified on the cartridge, dried overnight on a vacuum concentrator (Martin Christ, Germany) and re-suspended in 50 μL of LC SOLUTION (Biognosys AG, Switzerland). 1 μL of iRT reference peptides (Biognosys AG, Switzerland) was added to 19 μL of processed sample. Samples were analysed with an EASY 1000 NANOLC (ThermoFisher Scientific) connected online to a Q-Exactive (ThermoFisher Scientific). […]

[4] = test system: NRF2 reporter cells; test: Cell viability measured with ATP assay alongside NRF2 translocation (FIG. 4 to 7)
Description: FIGS. 5A to 5C: bar and line graphs showing NRF2 translocation presented as log 2 fold change compared to vehicle control (bars) and cell viability measured with ATP assay and presented as a percentage of the vehicle control (line) for anatabine (FIG. 5A), dimethyl fumarate (AlfaAesar) (FIG. 5B), and nornicotine (FIG. 5C).
FIGS. 6A to 6C: bar graphs showing NRF2 translocation presented as log 2 fold change compared to vehicle control (bars) and cell viability measured with ATP assay and presented as a percentage of the vehicle control (line) for anatabine (FIG. 6A), dimethyl fumarate (Sigma) (FIG. 6B), and sulforaphane (FIG. 6C).
FIGS. 7A and […]: bar graphs showing NRF2 translocation presented as log 2 fold change compared to vehicle control (bars) and cell viability measured with ATP assay and presented as a percentage of the vehicle control (line) for cotinine (FIG. 7A) and nicotine (FIG. 7B).

## C1=CCC(c2cccnc2)NC1 (racemic) [anatabine, 1,2,3,6-Tetrahydro-2,3′-bipyridine]
[1]; at 12.5 μM for sulforaphane, 125 μM and 250 μM for DMF, 1000 μM for anatabine
  maximum log 2-fold change of NRF2 activation: over 7
[1]; concentration series
  NRF2 luciferase reporter signal: concentration-dependent rise
[2]
  cell viability (ATP content vs medium-only control): ≥ 80%
[3]
  intracellular protein products of NRF2 target genes HMOX1, GCLM, NQO1 and TXNRD1: significantly expressed
[4]; 250 μM
  cell viability, percentage of the vehicle control: above 85%
[4]; 500 μM
  cell viability, percentage of the vehicle control: above 85%
[4]; higher concentrations of the tested range
  cell viability at higher concentrations: high cell viability
